Measured values from the NIST ThermoML archive (doi:10.1021/je0499364).
± gives the expanded uncertainty stated by the source.

Columns and labels:
[1] = Crystal
[2] = Molar enthalpy of transition or fusion; conditions: Crystal
[3] = molar heat capacity at constant pressure; conditions: 101.33 kPa

Structure (SMILES): CCCCCCCCCCCCCC(=O)OC [methyl tetradecanoate]
- Triple point temperature [1]: 292.14 ± 0.16 K
- Molar enthalpy of transition or fusion [2]: 12.43 ± 0.124 kcal/mol
- molar heat capacity at constant pressure ([3]; 5 K, Crystal): 0.55 ± 0.03 J/K/mol
- molar heat capacity at constant pressure ([3]; 10 K, Crystal): 4.56 ± 0.1 J/K/mol
- molar heat capacity at constant pressure ([3]; 20 K, Crystal): 21.34 ± 0.26 J/K/mol
- molar heat capacity at constant pressure ([3]; 30 K, Crystal): 43.99 ± 0.26 J/K/mol
- molar heat capacity at constant pressure ([3]; 40 K, Crystal): 69.2 ± 0.36 J/K/mol
- molar heat capacity at constant pressure ([3]; 50 K, Crystal): 93.62 ± 0.46 J/K/mol
- molar heat capacity at constant pressure ([3]; 60 K, Crystal): 113.9 ± 0.54 J/K/mol
- molar heat capacity at constant pressure ([3]; 70 K, Crystal): 133.41 ± 0.61 J/K/mol
- molar heat capacity at constant pressure ([3]; 80 K, Crystal): 150.35 ± 0.68 J/K/mol
- molar heat capacity at constant pressure ([3]; 90 K, Crystal): 165.54 ± 0.73 J/K/mol
- molar heat capacity at constant pressure ([3]; 100 K, Crystal): 179.38 ± 0.76 J/K/mol
- molar heat capacity at constant pressure ([3]; 110 K, Crystal): 192.06 ± 0.78 J/K/mol
- molar heat capacity at constant pressure ([3]; 120 K, Crystal): 203.55 ± 0.81 J/K/mol
- molar heat capacity at constant pressure ([3]; 130 K, Crystal): 214.52 ± 0.83 J/K/mol
- molar heat capacity at constant pressure ([3]; 140 K, Crystal): 224.93 ± 0.85 J/K/mol
- molar heat capacity at constant pressure ([3]; 150 K, Crystal): 235.23 ± 0.87 J/K/mol
- molar heat capacity at constant pressure ([3]; 160 K, Crystal): 244.79 ± 0.89 J/K/mol
- molar heat capacity at constant pressure ([3]; 170 K, Crystal): 254.91 ± 0.91 J/K/mol
- molar heat capacity at constant pressure ([3]; 180 K, Crystal): 265.19 ± 0.93 J/K/mol
- molar heat capacity at constant pressure ([3]; 190 K, Crystal): 275.63 ± 0.95 J/K/mol
- molar heat capacity at constant pressure ([3]; 200 K, Crystal): 286.07 ± 0.97 J/K/mol
- molar heat capacity at constant pressure ([3]; 210 K, Crystal): 296.67 ± 0.99 J/K/mol
- molar heat capacity at constant pressure ([3]; 220 K, Crystal): 308.85 ± 1 J/K/mol
- molar heat capacity at constant pressure ([3]; 230 K, Crystal): 321.05 ± 1 J/K/mol
- molar heat capacity at constant pressure ([3]; 240 K, Crystal): 334.49 ± 1.1 J/K/mol
- molar heat capacity at constant pressure ([3]; 250 K, Crystal): 349.48 ± 1.1 J/K/mol
- molar heat capacity at constant pressure ([3]; 260 K, Crystal): 368.64 ± 1.1 J/K/mol
- molar heat capacity at constant pressure ([3]; 270 K, Crystal): 388.14 ± 1.2 J/K/mol
- molar heat capacity at constant pressure ([3]; 280 K, Crystal): 429.3 ± 1.3 J/K/mol
- molar heat capacity at constant pressure ([3]; 300 K, Liquid): 500.03 ± 1.4 J/K/mol
- molar heat capacity at constant pressure ([3]; 310 K, Liquid): 504.66 ± 1.4 J/K/mol
- molar heat capacity at constant pressure ([3]; 320 K, Liquid): 510 ± 1.4 J/K/mol
- molar heat capacity at constant pressure ([3]; 330 K, Liquid): 515.86 ± 1.4 J/K/mol
- molar heat capacity at constant pressure ([3]; 340 K, Liquid): 522.03 ± 1.4 J/K/mol
- molar heat capacity at constant pressure ([3]; 350 K, Liquid): 528.04 ± 1.5 J/K/mol

Structure (SMILES): CCCCCCCCCCCCC(=O)OC [methyl tridecanoate]
- Triple point temperature [1]: 279.07 ± 0.16 K
- Molar enthalpy of transition or fusion [2]: 10.9 ± 0.124 kcal/mol
- molar heat capacity at constant pressure ([3]; 5 K, Crystal): 0.53 ± 0.03 J/K/mol
- molar heat capacity at constant pressure ([3]; 10 K, Crystal): 4.03 ± 0.09 J/K/mol
- molar heat capacity at constant pressure ([3]; 20 K, Crystal): 19.77 ± 0.24 J/K/mol
- molar heat capacity at constant pressure ([3]; 30 K, Crystal): 41.39 ± 0.25 J/K/mol
- molar heat capacity at constant pressure ([3]; 40 K, Crystal): 65.69 ± 0.35 J/K/mol
- molar heat capacity at constant pressure ([3]; 50 K, Crystal): 89.16 ± 0.44 J/K/mol
- molar heat capacity at constant pressure ([3]; 60 K, Crystal): 108.8 ± 0.52 J/K/mol
- molar heat capacity at constant pressure ([3]; 70 K, Crystal): 127.88 ± 0.59 J/K/mol
- molar heat capacity at constant pressure ([3]; 80 K, Crystal): 144.45 ± 0.66 J/K/mol
- molar heat capacity at constant pressure ([3]; 90 K, Crystal): 158.95 ± 0.72 J/K/mol
- molar heat capacity at constant pressure ([3]; 100 K, Crystal): 171.63 ± 0.74 J/K/mol
- molar heat capacity at constant pressure ([3]; 110 K, Crystal): 183.91 ± 0.77 J/K/mol
- molar heat capacity at constant pressure ([3]; 120 K, Crystal): 195.21 ± 0.79 J/K/mol
- molar heat capacity at constant pressure ([3]; 130 K, Crystal): 205.64 ± 0.81 J/K/mol
- molar heat capacity at constant pressure ([3]; 140 K, Crystal): 215.67 ± 0.83 J/K/mol
- molar heat capacity at constant pressure ([3]; 150 K, Crystal): 225.37 ± 0.85 J/K/mol
- molar heat capacity at constant pressure ([3]; 160 K, Crystal): 234.95 ± 0.87 J/K/mol
- molar heat capacity at constant pressure ([3]; 170 K, Crystal): 244.5 ± 0.89 J/K/mol
- molar heat capacity at constant pressure ([3]; 180 K, Crystal): 254.1 ± 0.91 J/K/mol
- molar heat capacity at constant pressure ([3]; 190 K, Crystal): 264.04 ± 0.93 J/K/mol
- molar heat capacity at constant pressure ([3]; 200 K, Crystal): 274.24 ± 0.95 J/K/mol
- molar heat capacity at constant pressure ([3]; 210 K, Crystal): 284.88 ± 0.97 J/K/mol
- molar heat capacity at constant pressure ([3]; 220 K, Crystal): 296.06 ± 0.99 J/K/mol
- molar heat capacity at constant pressure ([3]; 230 K, Crystal): 307.94 ± 1 J/K/mol
- molar heat capacity at constant pressure ([3]; 240 K, Crystal): 321.07 ± 1 J/K/mol
- molar heat capacity at constant pressure ([3]; 250 K, Crystal): 336.07 ± 1.1 J/K/mol
- molar heat capacity at constant pressure ([3]; 260 K, Crystal): 350.98 ± 1.1 J/K/mol
- molar heat capacity at constant pressure ([3]; 270 K, Crystal): 371.61 ± 1.1 J/K/mol
- molar heat capacity at constant pressure ([3]; 290 K, Liquid): 463.91 ± 1.3 J/K/mol
- molar heat capacity at constant pressure ([3]; 300 K, Liquid): 469.05 ± 1.3 J/K/mol
- molar heat capacity at constant pressure ([3]; 310 K, Liquid): 473.89 ± 1.4 J/K/mol
- molar heat capacity at constant pressure ([3]; 320 K, Liquid): 479.3 ± 1.4 J/K/mol
- molar heat capacity at constant pressure ([3]; 330 K, Liquid): 485.18 ± 1.4 J/K/mol
- molar heat capacity at constant pressure ([3]; 340 K, Liquid): 491.82 ± 1.4 J/K/mol

Structure (SMILES): CCCCCCCCCCC(=O)OC [methyl undecanoate]
- Triple point temperature [1]: 261.8 ± 0.16 K
- Molar enthalpy of transition or fusion [2]: 8.65 ± 0.122 kcal/mol
- molar heat capacity at constant pressure ([3]; 5 K, Crystal): 0.42 ± 0.03 J/K/mol
- molar heat capacity at constant pressure ([3]; 10 K, Crystal): 3.28 ± 0.08 J/K/mol
- molar heat capacity at constant pressure ([3]; 20 K, Crystal): 18.49 ± 0.23 J/K/mol
- molar heat capacity at constant pressure ([3]; 30 K, Crystal): 38.09 ± 0.24 J/K/mol
- molar heat capacity at constant pressure ([3]; 40 K, Crystal): 59.59 ± 0.32 J/K/mol
- molar heat capacity at constant pressure ([3]; 50 K, Crystal): 80.21 ± 0.4 J/K/mol
- molar heat capacity at constant pressure ([3]; 60 K, Crystal): 97.96 ± 0.47 J/K/mol
- molar heat capacity at constant pressure ([3]; 70 K, Crystal): 113.74 ± 0.54 J/K/mol
- molar heat capacity at constant pressure ([3]; 80 K, Crystal): 128.03 ± 0.59 J/K/mol
- molar heat capacity at constant pressure ([3]; 90 K, Crystal): 141.39 ± 0.68 J/K/mol
- molar heat capacity at constant pressure ([3]; 100 K, Crystal): 152.92 ± 0.71 J/K/mol
- molar heat capacity at constant pressure ([3]; 110 K, Crystal): 163.81 ± 0.73 J/K/mol
- molar heat capacity at constant pressure ([3]; 120 K, Crystal): 173.57 ± 0.75 J/K/mol
- molar heat capacity at constant pressure ([3]; 130 K, Crystal): 182.89 ± 0.77 J/K/mol
- molar heat capacity at constant pressure ([3]; 140 K, Crystal): 191.72 ± 0.78 J/K/mol
- molar heat capacity at constant pressure ([3]; 150 K, Crystal): 200.53 ± 0.8 J/K/mol
- molar heat capacity at constant pressure ([3]; 160 K, Crystal): 209.38 ± 0.82 J/K/mol
- molar heat capacity at constant pressure ([3]; 170 K, Crystal): 217.78 ± 0.84 J/K/mol
- molar heat capacity at constant pressure ([3]; 180 K, Crystal): 226.5 ± 0.85 J/K/mol
- molar heat capacity at constant pressure ([3]; 190 K, Crystal): 235.38 ± 0.87 J/K/mol
- molar heat capacity at constant pressure ([3]; 200 K, Crystal): 244.52 ± 0.89 J/K/mol
- molar heat capacity at constant pressure ([3]; 210 K, Crystal): 253.93 ± 0.91 J/K/mol
- molar heat capacity at constant pressure ([3]; 220 K, Crystal): 264.97 ± 0.93 J/K/mol
- molar heat capacity at constant pressure ([3]; 230 K, Crystal): 276.95 ± 0.95 J/K/mol
- molar heat capacity at constant pressure ([3]; 240 K, Crystal): 291.77 ± 0.98 J/K/mol
- molar heat capacity at constant pressure ([3]; 250 K, Crystal): 320.5 ± 1 J/K/mol
- molar heat capacity at constant pressure ([3]; 270 K, Liquid): 395.83 ± 1.2 J/K/mol
- molar heat capacity at constant pressure ([3]; 280 K, Liquid): 398.95 ± 1.2 J/K/mol
- molar heat capacity at constant pressure ([3]; 290 K, Liquid): 402.95 ± 1.2 J/K/mol
- molar heat capacity at constant pressure ([3]; 300 K, Liquid): 406.99 ± 1.2 J/K/mol
- molar heat capacity at constant pressure ([3]; 310 K, Liquid): 411.22 ± 1.2 J/K/mol
- molar heat capacity at constant pressure ([3]; 320 K, Liquid): 416.08 ± 1.2 J/K/mol
- molar heat capacity at constant pressure ([3]; 330 K, Liquid): 421.78 ± 1.2 J/K/mol
- molar heat capacity at constant pressure ([3]; 340 K, Liquid): 426.55 ± 1.2 J/K/mol
- molar heat capacity at constant pressure ([3]; 350 K, Liquid): 431.52 ± 1.3 J/K/mol
